According to ChEMBL document CHEMBL1152474, “Synthesis and investigation of anti-inflammatory activity and gastric ulcerogenicity of novel nitric oxide-donating pyrazoline derivatives” (Eur J Med Chem, 2009):

How the values were obtained:
[1] = test system: Rattus norvegicus; experiment: Antiinflammatory activity in albino rat assessed as inhibition of carrageenan-induced paw edema at 100 mg/kg, po treated for 30 mins measured after 3 hrs of carrageenan challenge; assay type: functional
[2] = test system: Rattus norvegicus; experiment: Antiinflammatory activity in albino rat assessed as inhibition of carrageenan-induced paw edema at 100 mg/kg, po treated for 30 mins measured after 2 hrs of carrageenan challenge; assay type: functional
[3] = Induction of NO release in phosphate buffer at pH 1 at 100 uM by Griess assay; assay type: physicochemical; settings: pH 1, 100 µM
[4] = test system: Rattus norvegicus; experiment: Antiinflammatory activity in albino rat assessed as inhibition of carrageenan-induced paw edema at 100 mg/kg, po treated for 30 mins measured after 1 hr of carrageenan challenge; assay type: functional
[5] = test system: Rattus norvegicus; experiment: Gastrotoxicity in albino rat assessed as ulcer index at 100 mg/kg, po after 5 hrs; assay type: toxicity, organism-based; design: dose 100 mg/kg, route oral; settings: in vivo
[6] = Induction of NO release per mol of compound in phosphate buffer at pH 7.4 at 100 uM after 2 hrs by Griess assay; assay type: physicochemical; settings: pH 7.4, 2 h
[7] = Induction of NO release per mol of compound in phosphate buffer at pH 7.4 at 100 uM after 6 hrs by Griess assay; assay type: physicochemical; settings: pH 7.4, 6 h
[8] = test system: Rattus norvegicus; experiment: Reduction in 5-(2-furyl)-4,5-dihydro-3-(3,4-dimethoxyphenyl)-1H-pyrazole-induced ulcer in albino rat at 100 mg/kg, po after 5 hrs; assay type: functional; design: scale not given: the % may be the effect or the level left
[9] = Induction of NO release per mol of compound in phosphate buffer at pH 7.4 at 100 uM after 5 hrs by Griess assay; assay type: physicochemical; settings: pH 7.4, 5 h
[10] = test system: Rattus norvegicus; experiment: Reduction in 1-(2-Bromopropionyl)-5-(2-furyl)-4,5-dihydro-3-(3,4-dimethoxyphenyl)-1H-pyrazole-induced ulcer in albino rat at 100 mg/kg, po after 5 hrs; assay type: functional; design: scale not given: the % may be the effect or the level left
[11] = Induction of NO release per mol of compound in phosphate buffer at pH 7.4 at 100 uM after 3 hrs by Griess assay; assay type: physicochemical; settings: pH 7.4, 3 h
[12] = Induction of NO release per mol of compound in phosphate buffer at pH 7.4 at 100 uM after 4 hrs by Griess assay; assay type: physicochemical; settings: pH 7.4, 4 h
[13] = Induction of NO release per mol of compound in phosphate buffer at pH 7.4 at 100 uM after 1 hr by Griess assay; assay type: physicochemical; settings: pH 7.4, 1 h
[14] = test system: Rattus norvegicus; experiment: Reduction in 1-(2-Bromoacetyl)-5-(2-furyl)-4,5-dihydro-3-(3,4-dimethoxyphenyl)-1H-pyrazole-induced ulcer in albino rat at 100 mg/kg, po after 5 hrs; assay type: functional; design: scale not given: the % may be the effect or the level left
[15] = test system: Rattus norvegicus; experiment: Reduction in 4,5-Dihydro-5-(2,4-dimethoxyphenyl)-3-(3,4-dimethoxyphenyl)-1H-pyrazole-induced ulcer in albino rat at 100 mg/kg, po after 5 hrs; assay type: functional; design: scale not given: the % may be the effect or the level left
[16] = test system: Rattus norvegicus; experiment: Reduction in 1-(2-Bromopropionyl)-4,5-dihydro-5-(2,4-dimethoxyphenyl)-3-(3,4-dimethoxyphenyl)-1H-pyrazole-induced ulcer in albino rat at 100 mg/kg, po after 5 hrs; assay type: functional; design: scale not given: the % may be the effect or the level left
[17] = test system: Rattus norvegicus; experiment: Reduction in 1-(2-Bromoacetyl)-4,5-dihydro-5-(2,4-dimethoxyphenyl)-3-(3,4-dimethoxyphenyl)-1H-pyrazole-induced ulcer in albino rat at 100 mg/kg, po after 5 hrs; assay type: functional; design: scale not given: the % may be the effect or the level left

Compound	inhibition in vivo at 100 mg/kg [1]	inhibition in vivo at 100 mg/kg [2]	Activity [3]	inhibition in vivo at 100 mg/kg [4]	UI [5]	NO release [6]	NO release [7]	Activity [8]	NO release [9]	Activity [10]	NO release [11]	NO release [12]	NO release [13]	Activity [14]	Activity [15]	Activity [16]	Activity [17]
COc1ccc(C2=NNC(c3ccco3)C2)cc1OC (stereo not given)	60%	53%	Not Active	45%	26.5	–	–	–	–	–	–	–	–	–	–	–	–
COc1ccc(C2=NN(C(=O)CBr)C(c3c(Cl)cccc3Cl)C2)cc1 (stereo not given)	7%	49%	–	43%	6	–	–	–	–	–	–	–	–	–	–	–	–
COc1ccc(C2=NN(C(=O)CBr)C(c3c(Cl)cccc3Cl)C2)cc1OC (stereo not given)	69%	58%	–	48%	3	–	–	–	–	–	–	–	–	–	–	–	–
COc1ccc(C2=NN(C(=O)C(C)O[N+](=O)[O-])C(c3ccco3)C2)cc1OC (stereo not given)	42%	39%	Not Active	35%	7	0.19 mol/mol	0.087 mol/mol	73%	0.125 mol/mol	30%	0.398 mol/mol	0.2 mol/mol	0.078 mol/mol	–	–	–	–
COc1ccc(C2=NNC(c3c(Cl)cccc3Cl)C2)cc1 (stereo not given)	60%	58%	–	54%	31	–	–	–	–	–	–	–	–	–	–	–	–
COc1ccc(C2=NN(C(=O)CNc3ccc(/C(C)=N/O)cc3)C(c3ccco3)C2)cc1OC (stereo not given)	46%	46%	Not Active	38%	0	0.128 mol/mol	0.267 mol/mol	96%	0.277 mol/mol	–	0.138 mol/mol	0.167 mol/mol	0.118 mol/mol	92%	–	–	–
COc1ccc(C2CC(c3ccc(OC)c(OC)c3)=NN2)c(OC)c1 (stereo not given)	42%	39%	–	38%	7	–	–	–	–	–	–	–	–	–	–	–	–
COc1ccc(C2=NN(C(=O)CBr)C(c3ccco3)C2)cc1OC (stereo not given)	51%	46%	Not Active	38%	13	–	–	–	–	–	–	–	–	–	–	–	–
COc1ccc(C2CC(c3ccc(OC)c(OC)c3)=NN2C(=O)C(C)Br)c(OC)c1 (stereo not given)	69%	63%	–	58%	23	–	–	–	–	–	–	–	–	–	–	–	–
COc1ccc(C2CC(c3ccc(OC)c(OC)c3)=NN2C(=O)CBr)c(OC)c1 (stereo not given)	71%	67%	–	53%	30	–	–	–	–	–	–	–	–	–	–	–	–
COc1ccc(C2CC(c3ccc(OC)c(OC)c3)=NN2C(=O)C(C)O[N+](=O)[O-])c(OC)c1 (stereo not given)	56%	61%	Not Active	44%	3	0.16 mol/mol	0.09 mol/mol	–	0.065 mol/mol	–	0.438 mol/mol	0.128 mol/mol	0.098 mol/mol	–	57%	86%	–
COc1ccc(C2CC(c3ccc(OC)c(OC)c3)=NN2C(=O)CO[N+](=O)[O-])c(OC)c1 (stereo not given)	58%	48%	Not Active	38%	5	0.391 mol/mol	0.588 mol/mol	–	0.78 mol/mol	–	0.433 mol/mol	0.523 mol/mol	0.329 mol/mol	–	28%	–	83%
COc1ccc(C2=NN(C(=O)C(C)Br)C(c3c(Cl)cccc3Cl)C2)cc1OC (stereo not given)	60%	56%	–	51%	10	–	–	–	–	–	–	–	–	–	–	–	–
COc1ccc(C2=NN(C(=O)C(C)O[N+](=O)[O-])C(c3c(Cl)cccc3Cl)C2)cc1OC (stereo not given)	55%	53%	Not Active	47%	7	0.19 mol/mol	0.114 mol/mol	–	0.145 mol/mol	–	0.501 mol/mol	0.255 mol/mol	0.123 mol/mol	–	–	–	–
COc1ccc(C2=NN(C(=O)CO[N+](=O)[O-])C(c3c(Cl)cccc3Cl)C2)cc1OC (stereo not given)	58%	49%	Not Active	40%	4	0.395 mol/mol	0.625 mol/mol	–	0.738 mol/mol	–	0.516 mol/mol	0.555 mol/mol	0.147 mol/mol	–	–	–	–
COc1ccc(C2=NN(C(=O)CO[N+](=O)[O-])C(c3ccco3)C2)cc1OC (stereo not given)	43%	37%	Not Active	32%	2	0.211 mol/mol	0.535 mol/mol	92%	0.614 mol/mol	–	0.281 mol/mol	0.483 mol/mol	0.126 mol/mol	84%	–	–	–
COc1ccc(C2=NN(C(=O)C(C)Br)C(c3ccco3)C2)cc1OC (stereo not given)	42%	36%	–	22%	10	–	–	–	–	–	–	–	–	–	–	–	–
COc1ccc(C2CC(c3ccc(OC)c(OC)c3)=NN2C(=O)CNc2ccc(/C(C)=N/O)cc2)c(OC)c1 (stereo not given)	46%	44%	Not Active	27%	2	0.114 mol/mol	0.268 mol/mol	–	0.302 mol/mol	–	0.148 mol/mol	0.194 mol/mol	0.137 mol/mol	–	71%	–	93%
COc1ccc(C2=NNC(c3c(Cl)cccc3Cl)C2)cc1OC (stereo not given)	58%	49%	–	26%	3	–	–	–	–	–	–	–	–	–	–	–	–
COc1ccc2c(c1)c(CC(=O)O)c(C)n2C(=O)c1ccc(Cl)cc1 [INDOMETHACIN]	82%	67%	–	58%	43.5	–	–	–	–	–	–	–	–	–	–	–	–
